The text below walks through data of US20260265265A1, “NOVEL BENZIMIDAZOLONE DERIVATIVE COMPOUND AS AUTOTAXIN INHIBITOR” (LG CHEM, LTD., priority 2023, published 2026).

For this experiment, the target named is T1, Recombinant Human ENPP-2/Autotaxin (Homo sapiens, UniProt Q13822).
T1 construct: purchased R&D systems 5255-EN
Description: LysoPLD activity measurement (autotaxin enzyme inhibition, choline release, TOOS reagent). The note with it: LysoPLD inhibitory activity; substrate 14:0 LysoPC; absorbance at 555 nm. The class given is biochemical. The essentials: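 Enzyme and compound were preincubated for 30 min before adding 14:0 LysoPC substrate, diluted to 300 μM, for 90 minutes at 37° C. The choline product was quantified colorimetrically with TOOS reagent. Wells without compound held 1% DMSO.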
By IC50 is commonly meant the concentration at which inhibition is half-maximal. As to `O=C(O)c1cccc(Cn2c(=O)n(-c3ccc(N4CCN(C(=O)C5CC5)CC4)cc3)c3cc(Cl)ccc32)c1F` [Example 140, 3-((5-chloro-3-(4-(4-(cyclopropanecarbonyl)piperazin-1-yl)phenyl)-2-oxo-2,3-dihydro-1H-benzo[d]imidazol-1-yl)methyl)-2-fluorobenzoic acid], the IC50 lay in the range of 10 to 100 nM.
As for `CCC(=O)N1CCN(c2ccc(-n3c(=O)n(Cc4cccc(C(=O)O)c4F)c4ccc(Cl)cc43)cc2)CC1` [Example 141, 3-((5-chloro-2-oxo-3-(4-(4-propionylpiperazin-1-yl)phenyl)-2,3-dihydro-1H-benzo[d]imidazol-1-yl)methyl)-2-fluorobenzoic acid], the IC50 lay in the range of 10 to 100 nM.
`O=C(O)c1cccc(Cn2c(=O)n(-c3ccc(N4CCN(C(=O)C5CCC5)CC4)cc3)c3cc(Cl)ccc32)c1F` [Example 142, 3-((5-chloro-3-(4-(4-(cyclobutanecarbonyl)piperazin-1-yl)phenyl)-2-oxo-2,3-dihydro-1H-benzo[d]imidazol-1-yl)methyl)-2-fluorobenzoic acid]: the half-maximal inhibitory concentration (IC50) lay in the range of 10 to 100 nM.
As to `O=C(O)c1cccc(Cn2c(=O)n(-c3ccc(N4CCN(C(=O)C5CCC(F)(F)CC5)CC4)cc3)c3cc(Cl)ccc32)c1F` [Example 143, 3-((5-chloro-3-(4-(4-(4,4-difluorocyclohexane-1-carbonyl)piperazin-1-yl)phenyl)-2-oxo-2,3-dihydro-1H-benzo[d]imidazol-1-yl)methyl)-2-fluorobenzoic acid], the IC50 lay within 10 to 100 nM.
As to `O=C(O)c1cccc(C2(n3c(=O)n(-c4nc5ccccc5s4)c4cc(Cl)ccc43)CC2)c1F` [Example 144, 3-(1-(3-(benzo[d]thiazol-2-yl)-5-chloro-2-oxo-2,3-dihydro-1H-benzo[d]imidazol-1-yl)cyclopropyl)-2-fluorobenzoic acid], the concentration for half-maximal inhibition (IC50) fell in the range of 10 to 100 nM.
Take `O=C(O)c1cccc(C2(n3c(=O)n(-c4ccc(CN5CCOCC5)cc4)c4cc(Cl)ccc43)CC2)c1` [Example 145, 3-(1-(5-chloro-3-(4-(morpholinomethyl)phenyl)-2-oxo-2,3-dihydro-1H-benzo[d]imidazol-1-yl)cyclopropyl)benzoic acid]: the IC50 is 10 to 100 nM.
As to `O=C(O)c1cccc(C2(n3c(=O)n(-c4ccc(N5CCCC5)cc4)c4cc(Cl)ccc43)CC2)c1` [Example 146, 3-(1-(5-chloro-2-oxo-3-(4-(pyrrolidin-1-yl)phenyl)-2,3-dihydro-1H-benzo[d]imidazol-1-yl)cyclopropyl)benzoic acid], the half-inhibitory concentration (IC50) was less than 10 nM.
As to `O=C(O)c1cccc(C2(n3c(=O)n(-c4ccc(N5CCOCC5)cc4)c4cc(Cl)ccc43)CC2)c1` [Example 147, 3-(1-(5-chloro-3-(4-morpholinophenyl)-2-oxo-2,3-dihydro-1H-benzo[d]imidazol-1-yl)cyclopropyl)benzoic acid], the IC50 is less than 10 nM.
With `O=C(O)c1cccc(C2(n3c(=O)n(-c4ccc(N5CC6(CCOCC6)C5)cc4)c4cc(Cl)ccc43)CC2)c1` [Example 148, 3-(1-(3-(4-(7-oxa-2-azaspiro[3.5]nonane-2-yl)phenyl)-5-chloro-2-oxo-2,3-dihydro-1H-benzo[d]imidazol-1-yl)cyclopropyl)benzoic acid], the IC50 was less than 10 nM.
As to `O=C(O)c1cccc(C2(n3c(=O)n(-c4ccc(N5CC6(COC6)C5)cc4)c4cc(Cl)ccc43)CC2)c1` [Example 149, 3-(1-(3-(4-(2-oxa-6-azaspiro[3.3]heptane-6-yl)phenyl)-5-chloro-2-oxo-2,3-dihydro-1H-benzo[d]imidazol-1-yl)cyclopropyl)benzoic acid], the IC50 is less than 10 nM.
For `O=C(O)c1cccc(Cn2c(=O)n(-c3ccc(C4CCN(C(=O)C5CC5)CC4)cc3)c3c(F)c(Cl)ccc32)c1F` [Example 150, 3-((5-chloro-3-(4-(1-(cyclopropanecarbonyl)piperidin-4-yl)phenyl)-4-fluoro-2-oxo-2,3-dihydro-1H-benzo[d]imidazol-1-yl)methyl)-2-fluorobenzoic acid] the value was 10 to 100 nM; for `CCC(=O)N1CCC(c2ccc(-n3c(=O)n(Cc4cccc(C(=O)O)c4F)c4ccc(Cl)c(F)c43)cc2)CC1` [Example 151, 3-((5-chloro-4-fluoro-2-oxo-3-(4-(1-propionylpiperidin-4-yl)phenyl)-2,3-dihydro-1H-benzo[d]imidazol-1-yl)methyl)-2-fluorobenzoic acid], 10 to 100 nM.
Next, `O=C(O)c1cccc(Cn2c(=O)n(-c3ccc(C4CCN(C(=O)C5CCC5)CC4)cc3)c3c(F)c(Cl)ccc32)c1F` [Example 152, 3-((5-chloro-3-(4-(1-(cyclobutanecarbonyl)piperidin-4-yl)phenyl)-4-fluoro-2-oxo-2,3-dihydro-1H-benzo[d]imidazol-1-yl)methyl)-2-fluorobenzoic acid]: 10 to 100 nM.
For `CN(C)c1ccc(-n2c(=O)n(C(C)(C)c3cccc(C(=O)O)c3)c3ccc(Cl)cc32)cc1` [Example 153, 3-(2-(5-chloro-3-(4-(dimethylamino)phenyl)-2-oxo-2,3-dihydro-1H-benzo[d]imidazol-1-yl)propane-2-yl)benzoic acid], the IC50 lay within 10 to 100 nM.
Take `CC(C)(c1cccc(C(=O)O)c1)n1c(=O)n(-c2ccc(N3CC(O)C3)cc2)c2cc(Cl)ccc21` [Example 154, 3-(2-(5-chloro-3-(4-(3-hydroxyazetidin-1-yl)phenyl)-2-oxo-2,3-dihydro-1H-benzo[d]imidazol-1-yl)propane-2-yl)benzoic acid]: the IC50 was 10 to 100 nM.
As to `O=C(O)c1cccc(C2(n3c(=O)n(-c4ccc(C5CCOCC5)cc4)c4cc(Cl)ccc43)CCC2)c1` [Example 155, 3-(1-(5-chloro-2-oxo-3-(4-(tetrahydro-2H-pyran-4-yl)phenyl)-2,3-dihydro-1H-benzo[d]imidazol-1-yl)cyclobutyl)benzoic acid], the IC50 fell in the range of 10 to 100 nM.
Regarding `CN(C)c1ccc(-n2c(=O)n(C3(c4cccc(C(=O)O)c4)CCC3)c3ccc(Cl)cc32)cc1` [Example 156, 3-(1-(5-chloro-3-(4-(dimethylamino)phenyl)-2-oxo-2,3-dihydro-1H-benzo[d]imidazol-1-yl)cyclobutyl)benzoic acid], the concentration for half-maximal inhibition (IC50) was in the range of 10 to 100 nM.
In the case of `CN(C)C(=O)c1ccc(-n2c(=O)n(C3(c4cccc(C(=O)O)c4)CCC3)c3ccc(Cl)cc32)cc1` [Example 157, 3-(1-(5-chloro-3-(4-(dimethylcarbamoyl)phenyl)-2-oxo-2,3-dihydro-1H-benzo[d]imidazol-1-yl)cyclobutyl)benzoic acid], the IC50 is less than 10 nM.
Regarding `CC(C)(c1cccc(C(=O)O)c1)n1c(=O)n(-c2ccc(C3CCOCC3)cc2)c2cc(Cl)ccc21` [Example 158, 3-(2-(5-chloro-2-oxo-3-(4-(tetrahydro-2H-pyran-4-yl)phenyl)-2,3-dihydro-1H-benzo[d]imidazol-1-yl)propan-2-yl)benzoic acid], the IC50 lay within 10 to 100 nM.
Turning to `O=C(O)c1cccc(C2(n3c(=O)n(-c4ccc(N5CC(O)C5)cc4)c4cc(Cl)ccc43)CC2)c1` [Example 159, 3-(1-(5-chloro-3-(4-(3-hydroxyazetidin-1-yl)phenyl)-2-oxo-2,3-dihydro-1H-benzo[d]imidazol-1-yl)cyclopropyl)benzoic acid], the IC50 was less than 10 nM.
Next, `O=C(O)c1cccc(C2(n3c(=O)n(-c4ccc(N5CCC(F)(F)CC5)cc4)c4cc(Cl)ccc43)CC2)c1` [Example 160, 3-(1-(5-chloro-3-(4-(4,4-difluoropiperidin-1-yl)phenyl)-2-oxo-2,3-dihydro-1H-benzo[d]imidazol-1-yl)cyclopropyl)benzoic acid]: less than 10 nM; `CN(C)c1ccc(-n2c(=O)n(Cc3cccc(C(=O)O)c3)c3ncc(Cl)cc32)cc1` [Example 161, 3-((6-chloro-1-(4-(dimethylamino)phenyl)-2-oxo-1,2-dihydro-3H-imidazo[4,5-b]pyridin-3-yl)methyl)benzoic acid]: 100 to 1000 nM.
Consider `O=C(O)c1cccc(Cn2c(=O)n(-c3ccc(N4CCOCC4)cc3)c3cc(Cl)cnc32)c1` [Example 162, 3-((6-chloro-1-(4-morpholinophenyl)-2-oxo-1,2-dihydro-3H-imidazo[4,5-b]pyridin-3-yl)methyl)benzoic acid], for which the IC50 lay within 100 to 1000 nM.
As to `O=C(O)c1cccc(Cn2c(=O)n(-c3ccc(C4CC4)cn3)c3cc(Cl)ccc32)c1` [Example 163, 3-((5-chloro-3-(5-cyclopropylpyridin-2-yl)-2-oxo-2,3-dihydro-1H-benzo[d]imidazol-1-yl)methyl)benzoic acid], the IC50 lay within 100 to 1000 nM.
`CN(C)c1ccc(-n2c(=O)n(Cc3cccc(C(=O)O)c3)c3ccc(Cl)cc32)nc1` [Example 164, 3-((5-chloro-3-(5-(dimethylamino)pyridin-2-yl)-2-oxo-2,3-dihydro-1H-benzo[d]imidazol-1-yl)methyl)benzoic acid]: the half-inhibitory concentration (IC50) lay in the range of 100 to 1000 nM.
`O=C(O)c1cccc(C2(n3c(=O)n(-c4ccc(N5CCC(F)(F)C5)nc4)c4cc(Cl)ccc43)CC2)c1` [Example 165, 3-(1-(5-chloro-3-(6-(3,3-difluoropyrrolidin-1-yl)pyridin-3-yl)-2-oxo-2,3-dihydro-1H-benzo[d]imidazol-1-yl)cyclopropyl)benzoic acid]: the concentration for half-maximal inhibition (IC50) is less than 10 nM.
Take `O=C(O)c1cccc(Cn2c(=O)n(-c3ccc(N4CCC(F)(F)C4)nc3)c3cc(Cl)ccc32)c1F` [Example 166, 3-((5-chloro-3-(6-(3,3-difluoropyrrolidine-1-yl)pyridin-3-yl)-2-oxo-2,3-dihydro-1H-benzo[d]imidazol-1-yl)methyl)-2-fluorobenzoic acid]: the IC50 was 100 to 1000 nM.
`Cc1ccc2c(n1)n(-c1ccc(N(C)C)cc1)c(=O)n2Cc1cccc(C(=O)O)c1` [Example 168, 3-((3-(4-(dimethylamino)phenyl)-5-methyl-2-oxo-2,3-dihydro-1H-imidazo[4,5-b]pyridin-1-yl)methyl)benzoic acid]: the IC50 was in the range of 100 to 1000 nM.
`O=C(O)c1cccc(Cn2c(=O)n(-c3ccc(C(=O)N4CCCC4)cc3)c3cc(Cl)cnc32)c1` [Example 169, 3-((6-chloro-2-oxo-1-(4-(pyrrolidine-1-carbonyl)phenyl)-1,2-dihydro-3H-imidazo[4,5-b]pyridin-3-yl)methyl)benzoic acid]: the IC50 fell in the range of 10 to 100 nM.
